This note sets out measurements from patent EP0157361A2, “Analysis method and means for detecting esterolytic and or proteolytic enzymes” (MILES INC., priority 1984, dated 1985).

What all share (format): biochemical
The subject of assay [1] is Leukozyten-Enzyme. Nature of the assay: Acceleration of cleavage of N-Tosyl-L-alanin-3-hydroxy-5-phenylpyrrolester by leukocytes (photometric, 330 nm). The conditions noted are these: 250 µl N-Methylpyrrolidon. On the procedure:
(§1) Zu 2.25 ml des betreffenden Puffers fügte man je nach Substrat 50 - 250 µl N-Methylpyrrolidon als Lösungsvermittler und ergänzte das Volumen der Lösung mit Puffer auf 2.5 ml. Dann wurden 5 µl einer Lösung von 5 - 100 mg n-Undecanol in 1 ml N-Methylpyrrolidon sowie 5 µl einer Lösung von 2 mg Natriumdodecylsulfat (SDS) bzw. 4 mg der anderen Detergentien in 1 ml Wasser oder N-Methylpyrrolidon zu der Reaktionsmischung zugegeben. Nach gutem Durchmischen wurden 5 µl einer 10-1 molaren Substratlösung in N-Methylpyrrolidon, Dimethylformamid oder Dimethylsulfoxid in die Reaktionslösung gegeben und nach der Zugabe der Leukozytensuspension der Extinktionsanstieg bei der angegebenen Wellenlänge kontinuierlich verfolgt. Die Spontanhydrolyse des Substrats wird in einem Paralellansatz ohne Leukozytenzugabe anhand des Extinktionsanstiegs bestimmt.
(§2) Für die Bestimmung der Umsetzungsgeschwindigkeit wird der in der Enzymreaktion erhaltene Extinktionsanstieg um den für die Spontanhydrolyse ermittelten Betrag vermindert. Absolutwerte für die Substratspaltung (Mol. Min.^-1) können aus den Extinktionsdifferenzen mit Hilfe der molaren Extinktionskoeffizienten errechnet werden.
Beschleunigung der Spaltung von N-Tosyl-L-alanin-3-hydroxy-5-phenylpyrrolester mit Leukozyten in 0.1 M Tris-(hydroxymethyl)-aminomethan-Salzsäurepuffer (pH 8.8) in Gegenwart von 250 µl N-Methylpyrrolidon durch Zusätze von Aktivatoren und Detergentien.
Beschleunigung der Spaltung von N-Tosyl-L-alanin-3-hydroxy-5-phenylpyrrolester mit Leukozyten in diversen 0.1 M. Puffern (pH 8.4) unter Zusatz von 250 µl N-Methylpyrrolidon und Aktivatoren sowie Detergentien.

Assay [2] deals with Leukozyten-Enzyme. The assay is described as follows: Acceleration of enzymatic cleavage of N-Tosyl-L-alanin-indoxylester by leukocytes (photometric, 360 nm). Conditions: for relative Spaltungsgeschwindigkeit: 0.1 M Tris-HCl buffer pH 8.8, 360 nm; for rel.Geschwindigk.der Enzymreaktion, bezogen auf Decanol (0,125 µl/Test) = 1: 50 µl N-Methylpyrrolidon, SDS 10 µg/Test, Tris-HCl pH 8.8. As for the experimental part:
as §1, §2
Beschleunigende Wirkung von Alkanolen auf die enzymatische Spaltung von N-Tosyl-L-alanin-indoxylester mit Leukozyten in 0.1 M Tris-(hydroxymethyl)-aminomethan-Salzsäure-Puffer pH 8.8 unter Zusatz von SDS bzw. Polylysin mit einem mittleren Molekulargewicht von 14 000 (Messung bei 360 nm).
Konzentrationsabhängigkeit der beschleunigenden Wirkung von n-Undecanol auf die Spaltung von N-Tosyl-L-alanin-indoxylester mit Leukozyten in Gegenwart von 50 µl N-Methylpyrrolidon/Testansatz und 10 µg/Test SDS in 0.1 M Tris-(hydroxymethyl)-aminomethan-Salzsäurepuffer (pH 8.8).

The test system of assay [3] is Leukozyten-Enzyme. Nature of the assay: Acceleration of cleavage of N-Tosyl-L-alanin-5-hydroxy-1,2-benzisothiazolylester by leukocytes (photometric, 325 nm). Conditions: Aktivator 125 µg/Test, Tris-HCl pH 8.4, 100 µl N-Methylpyrrolidon. As for the experimental part:
as §1, §2
Beschleunigung der Spaltung von N-Tosyl-L-alanin-5-hydroxy-1,2-benzisothiazolylester mit Leukozyten in 0.1 M Tris-(hydroxymethyl)-aminomethan-Salzsäurepuffer (pH 8.4) in Gegenwart von 100 µl N-Methylpyrrolidon durch Zusätze von Aktivatoren und Detergentien.

Assay [4] deals with Leukozyten-Enzyme. The assay is described as follows: Activation of leukocyte enzymes, general statement in the description. Conditions: statement in words; compared with Hexanol, Heptanol, Octanol, Nonanol, Decanol, Dodecanol, Tridecanol of EP-A 14 929. On the procedure: as §1, §2
Where [5] appears, read: Puffer Borat 0.1 M pH 8.4, Aktivator 0.125 µl bzw. 125 µg je Test, SDS 10 µg/Test.
The mark [6] stands for this setting: Puffer Tris 0.1 M pH 8.4, Aktivator 0.125 µl bzw. 125 µg je Test, SDS 10 µg/Test.
Where [7] appears, read: Detergens Poly-L-Lys (mean MW 14 000) 20 µg/Test.
[8] abbreviates: Aktivator 125 µg/Test, SDS 10 µg/Test, Tris-HCl pH 8.8.
Where [9] appears, read: Aktivator 125 µg/Test, Zephirol 20 µg/Test, Tris-HCl pH 8.8.
Where [10] appears, read: Puffer Borat 0.1 M pH 8.4, Aktivator 0.125 µl bzw. 125 µg je Test, no detergent.
Setting [11] is: Puffer Carbonat-Hydrogencarbonat 0.1 M pH 8.4, Aktivator 0.125 µl bzw. 125 µg je Test, SDS 10 µg/Test.
Setting [12] is: Puffer Phosphat 0.1 M pH 8.4, Aktivator 0.125 µl bzw. 125 µg je Test, SDS 10 µg/Test.
Where [13] appears, read: Puffer Tris 0.1 M pH 8.4, Aktivator 0.125 µl bzw. 125 µg je Test, BDTA 20 µg/Test.
[14] abbreviates: Puffer Tris 0.1 M pH 8.4, Aktivator 0.125 µl bzw. 125 µg je Test, Poly-L-Arg (40000) 20 µg/Test.
Where [15] appears, read: Puffer Tris 0.1 M pH 8.4, Aktivator 0.125 µl bzw. 125 µg je Test, no detergent.

“Also recorded” adds a separate entry of the source.

For `CCCCCCCCCCCCOS(=O)(=O)O` [SDS, Natriumdodecylsulfat], the “relative Spaltungsgeschwindigkeit” value in assay [1] (Puffer Borat 0.1 M pH 8.4, no activator, detergent SDS alone 10 µg/Test) is reported as 2.8; in assay [1] (Puffer Tris 0.1 M pH 8.4, no activator, detergent SDS alone 10 µg/Test) it was 0.8.

On to `CCCCCCCCCO` [n-Nonanol], for which the “relative Spaltungsgeschwindigkeit” value in assay [1] (setting [5]) amounted to 3.0; in assay [1] (setting [6]), 0.6.

As to `CCCCCCCCCCCCCO` [n-Tridecanol], in assay [2] (Detergens SDS 10 µg/Test), the “relative Spaltungsgeschwindigkeit” value is listed as 0.75.

Consider `CCCCCCCCCCO` [n-Decanol], for which the “relative Spaltungsgeschwindigkeit” value in assay [3] (Poly-L-Lys(14000) 20 µg/Test) came to 4.25; in assay [3] (Poly-L-Orn(30000) 20 µg/Test) it was 3.8; in assay [3] (SDS 10 µg/Test), 1.0; in assay [3] (no detergent), 1.9; in assay [2] (setting [7]), 3.2; in assay [2] (Detergens SDS 10 µg/Test), 1. Further, the “relative Spaltungsgeschwindigkeit” value in assay [1] (setting [8]) came out at 1.0; in assay [1] (setting [9]) it was 1.27; in assay [1] (Puffer Borat 0.1 M pH 8.4, Aktivator 0.125 µl bzw. 125 µg je Test, Poly-DL-Lys(37000) 20 µg/Test), 3.15; in assay [1] (setting [5]) it was 9.0; in assay [1] (setting [10]) it was 4.9; in assay [1] (setting [11]), 5.6. Moreover, the “relative Spaltungsgeschwindigkeit” value in assay [1] (setting [12]) came out at 12.0; in assay [1] (setting [13]) it was 1.05; in assay [1] (setting [14]), 3.7; in assay [1] (setting [6]), 1; in assay [1] (setting [15]), 0.9.

`CCCCCCCCCCCCO` [n-Dodecanol]: the “relative Spaltungsgeschwindigkeit” value came to 0.55 in assay [2] (Detergens SDS 10 µg/Test) and 9.0 in assay [1] (setting [5]).

For the compound `CCCCCCCCCCCO` [n-Undecanol], the “relative Spaltungsgeschwindigkeit” value in assay [3] (Poly-L-Lys(14000) 20 µg/Test) is reported as 8.2; in assay [3] (Poly-L-Orn(30000) 20 µg/Test), 7.4; in assay [3] (SDS 10 µg/Test), 2.5; in assay [3] (no detergent), 3.1; in assay [2] (setting [7]), 6.5; in assay [2] (Detergens SDS 10 µg/Test) it was 1.85. Also, the “relative Spaltungsgeschwindigkeit” value is reported as 3.3 in assay [1] (setting [8]); 2.6 in assay [1] (setting [9]); 15.2 in assay [1] (setting [5]); 5.6 in assay [1] (setting [10]); 6.6 in assay [1] (setting [11]); 17.3 in assay [1] (setting [12]). Also, the “relative Spaltungsgeschwindigkeit” value in assay [1] (setting [13]) came to 3.55; in assay [1] (setting [14]), 6.55; in assay [1] (setting [6]) it was 2.1; in assay [1] (setting [15]), 1.7. Further, in assay [4], the “Aktivierung der Leukozyten-Enzyme” value was “stark aktiviert; also recorded: alle vorgenannten Alkohole in der Aktivierung der Leukozyten- Enzyme übertrifft”. For the same compound, the “rel.Geschwindigk.der Enzymreaktion, bezogen auf Decanol (0,125 µl/Test) = 1” value in assay [2] (0,2 µl Undecanol in test solution) was 2,1; in assay [2] (0,5 µl Undecanol in test solution), 3,1; in assay [2] (0,25 µl Undecanol in test solution), 3,2; in assay [2] (0,025 µl Undecanol in test solution), 0,65; in assay [2] (0,075 µl Undecanol in test solution), 1,5; in assay [2] (0,125 µl Undecanol in test solution) it was 1,75.
